Data taken from ChEMBL document CHEMBL6092148, “Design, preparation and biological evaluation of new Rociletinib-inspired analogs as irreversible EGFR inhibitors to treat non-small-cell-lung cancer” (Bioorg Med Chem, 2024).

Assays:
[1] = biological target: T1, Epidermal growth factor receptor (Homo sapiens, UniProt P00533)
Description: Inhibition of wild type EGFR (unknown origin) using poly (Glu:Tyr) as substrate incubated for 1 hr in presence of ATP by ADP-glo kinase assay

[2] = biological target: T2, Tyrosine-protein kinase JAK3 (Homo sapiens, UniProt P52333)
T2 sequence (P52333 whole entry): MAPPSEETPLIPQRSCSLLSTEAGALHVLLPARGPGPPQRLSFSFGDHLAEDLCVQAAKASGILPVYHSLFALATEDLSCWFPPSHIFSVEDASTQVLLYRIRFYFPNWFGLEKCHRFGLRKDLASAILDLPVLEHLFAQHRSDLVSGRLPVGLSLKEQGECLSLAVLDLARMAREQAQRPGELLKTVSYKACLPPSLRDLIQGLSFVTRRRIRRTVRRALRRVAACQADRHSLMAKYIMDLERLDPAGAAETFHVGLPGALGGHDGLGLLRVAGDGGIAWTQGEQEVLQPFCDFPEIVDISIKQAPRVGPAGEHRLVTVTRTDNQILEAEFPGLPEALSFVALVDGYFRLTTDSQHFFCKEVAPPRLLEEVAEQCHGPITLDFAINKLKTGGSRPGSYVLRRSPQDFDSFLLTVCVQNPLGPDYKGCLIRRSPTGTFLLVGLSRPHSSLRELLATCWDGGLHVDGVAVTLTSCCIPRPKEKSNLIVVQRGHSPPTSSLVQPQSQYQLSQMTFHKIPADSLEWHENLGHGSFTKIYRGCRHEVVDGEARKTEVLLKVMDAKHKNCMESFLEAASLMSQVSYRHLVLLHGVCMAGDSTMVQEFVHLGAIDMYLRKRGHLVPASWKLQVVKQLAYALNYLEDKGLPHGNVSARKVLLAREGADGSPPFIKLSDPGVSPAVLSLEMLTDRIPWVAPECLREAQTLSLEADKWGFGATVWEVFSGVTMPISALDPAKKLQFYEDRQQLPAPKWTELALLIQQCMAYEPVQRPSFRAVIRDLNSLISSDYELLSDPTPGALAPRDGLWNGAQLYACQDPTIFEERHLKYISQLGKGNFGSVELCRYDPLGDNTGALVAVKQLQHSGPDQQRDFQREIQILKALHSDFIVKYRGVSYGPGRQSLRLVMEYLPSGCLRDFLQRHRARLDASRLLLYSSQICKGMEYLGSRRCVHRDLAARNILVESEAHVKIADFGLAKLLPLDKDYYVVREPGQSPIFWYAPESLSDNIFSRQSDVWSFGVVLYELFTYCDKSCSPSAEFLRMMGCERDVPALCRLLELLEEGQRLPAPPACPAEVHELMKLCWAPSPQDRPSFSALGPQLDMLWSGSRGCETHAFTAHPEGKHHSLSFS
Description: Inhibition of JAK3 (unknown origin) using poly (Glu:Tyr) as substrate incubated for 1 hr in presence of ATP by ADP-glo kinase assay

[3] = tested on: A-431; experiment: cells; conditions: Homo sapiens, A-431, 72 h
[4] = in vitro; conditions: human, HepG2 cells and A549 cells
Description: Selectivity index, ratio of IC50 for human HepG2 cells to IC50 for human A549 cells

[5] = biological target: T1, Epidermal growth factor receptor; remark: listed apart in the source
Description: Irreversible inhibition of wild type EGFR (unknown origin) assessed as inactivation constant

[6] = tested on: HepG2; experiment: cells; conditions: Homo sapiens, HepG2, 72 h
[7] = tested on: A549; experiment: cells; conditions: Homo sapiens, A549, 72 h
[8] = physchem; conditions: 1-octanol/PBS, pH 7.4
[9] = biological target: T1, Epidermal growth factor receptor; experiment: Binding affinity to wild type EGFR (unknown origin) assessed as inhibition constant
[10] = Aqueous solubility of the compound in PBS buffer at PH 7.4 measured after 6 hrs by HPLC-UV analysis; type: physicochemical; conditions: pH 7.4, 6 h
[11] = biological target: Epidermal growth factor receptor (Homo sapiens, UniProt P00533, L858R/T790M)
Chain of Epidermal growth factor receptor (Homo sapiens, UniProt P00533, L858R/T790M) (P00533 25-1210 T790M/L858R limits assumed): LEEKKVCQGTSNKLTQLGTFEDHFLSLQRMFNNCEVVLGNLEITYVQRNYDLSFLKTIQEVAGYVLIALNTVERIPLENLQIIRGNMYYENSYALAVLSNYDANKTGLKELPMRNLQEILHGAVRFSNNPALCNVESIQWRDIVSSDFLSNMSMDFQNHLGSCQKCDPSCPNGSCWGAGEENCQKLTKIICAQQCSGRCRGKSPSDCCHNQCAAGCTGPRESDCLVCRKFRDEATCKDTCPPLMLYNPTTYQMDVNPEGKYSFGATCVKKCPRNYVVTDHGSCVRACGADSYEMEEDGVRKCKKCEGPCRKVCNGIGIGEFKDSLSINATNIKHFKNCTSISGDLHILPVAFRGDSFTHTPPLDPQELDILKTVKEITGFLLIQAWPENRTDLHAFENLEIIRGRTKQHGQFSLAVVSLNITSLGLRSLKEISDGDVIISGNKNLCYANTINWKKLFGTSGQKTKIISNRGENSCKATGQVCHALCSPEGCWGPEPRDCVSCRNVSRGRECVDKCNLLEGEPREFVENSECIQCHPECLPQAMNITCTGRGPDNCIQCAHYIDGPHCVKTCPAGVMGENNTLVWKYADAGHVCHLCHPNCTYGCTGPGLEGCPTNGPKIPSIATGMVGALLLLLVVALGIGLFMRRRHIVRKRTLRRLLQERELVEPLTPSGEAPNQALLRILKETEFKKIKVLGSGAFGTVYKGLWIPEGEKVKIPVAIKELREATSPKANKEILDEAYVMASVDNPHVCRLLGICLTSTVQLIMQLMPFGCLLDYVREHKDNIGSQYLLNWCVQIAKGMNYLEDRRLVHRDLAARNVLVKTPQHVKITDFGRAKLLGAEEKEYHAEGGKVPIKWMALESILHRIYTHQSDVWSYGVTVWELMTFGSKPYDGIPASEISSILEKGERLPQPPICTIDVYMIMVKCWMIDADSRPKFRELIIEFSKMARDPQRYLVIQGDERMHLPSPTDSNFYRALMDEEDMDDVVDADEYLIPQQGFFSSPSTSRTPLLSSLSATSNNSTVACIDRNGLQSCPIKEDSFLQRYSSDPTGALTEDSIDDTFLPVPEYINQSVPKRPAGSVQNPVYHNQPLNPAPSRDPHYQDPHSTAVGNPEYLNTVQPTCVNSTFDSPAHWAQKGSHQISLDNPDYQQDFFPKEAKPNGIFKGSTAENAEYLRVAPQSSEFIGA

[12] = biological target: T1, Epidermal growth factor receptor; experiment: Potency index, ratio of rociletinib IC50 to test compound IC50 for inhibition of wild type EGFR (unknown origin)

T1 sequence (P00533 whole entry): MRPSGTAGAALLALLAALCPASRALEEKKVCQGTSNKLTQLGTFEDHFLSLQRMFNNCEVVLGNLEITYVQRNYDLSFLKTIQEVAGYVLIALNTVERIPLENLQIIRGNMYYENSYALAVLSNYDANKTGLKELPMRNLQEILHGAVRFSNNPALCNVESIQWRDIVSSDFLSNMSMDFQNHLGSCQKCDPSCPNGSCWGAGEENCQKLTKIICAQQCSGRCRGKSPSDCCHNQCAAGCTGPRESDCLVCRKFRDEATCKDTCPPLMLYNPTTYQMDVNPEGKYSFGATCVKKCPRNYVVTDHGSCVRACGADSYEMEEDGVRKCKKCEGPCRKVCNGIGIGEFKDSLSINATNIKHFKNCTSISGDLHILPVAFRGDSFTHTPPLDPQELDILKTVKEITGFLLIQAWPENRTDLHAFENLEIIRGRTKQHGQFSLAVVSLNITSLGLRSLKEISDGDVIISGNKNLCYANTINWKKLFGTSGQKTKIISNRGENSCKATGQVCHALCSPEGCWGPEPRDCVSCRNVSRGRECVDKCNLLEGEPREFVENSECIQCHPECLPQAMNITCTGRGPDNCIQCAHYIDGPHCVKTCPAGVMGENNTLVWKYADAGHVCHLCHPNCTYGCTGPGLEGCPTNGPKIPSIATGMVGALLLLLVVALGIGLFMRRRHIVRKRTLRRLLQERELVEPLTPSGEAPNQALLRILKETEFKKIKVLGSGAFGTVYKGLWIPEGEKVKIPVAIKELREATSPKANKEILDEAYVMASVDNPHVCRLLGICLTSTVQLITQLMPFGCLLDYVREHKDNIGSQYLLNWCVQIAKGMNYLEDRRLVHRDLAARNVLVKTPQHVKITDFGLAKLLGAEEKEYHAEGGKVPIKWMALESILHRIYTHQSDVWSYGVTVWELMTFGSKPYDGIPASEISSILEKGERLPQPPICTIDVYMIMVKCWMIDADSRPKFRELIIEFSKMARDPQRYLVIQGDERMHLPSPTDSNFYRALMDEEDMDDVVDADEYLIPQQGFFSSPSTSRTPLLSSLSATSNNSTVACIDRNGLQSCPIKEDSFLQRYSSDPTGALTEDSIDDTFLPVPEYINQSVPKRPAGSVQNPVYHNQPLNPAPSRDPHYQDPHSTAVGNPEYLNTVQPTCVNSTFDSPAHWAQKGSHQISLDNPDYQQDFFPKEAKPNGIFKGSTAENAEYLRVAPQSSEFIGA

Structure (SMILES) | IC50 [1] | IC50 [3] | selectivity ratio [4] | IC50 [6] | IC50 [7] | logD at 6 h [8] | solubility [10] | IC50 [11] | other results
O=C(/C=C/c1ccccc1)Nc1cccc(Nc2nc(Nc3ccc4[nH]c(=O)oc4c3)ncc2Cl)c1 | 76.7 nM |  |  |  |  |  |  |  | 
C=CC(=O)Nc1cccc(Nc2nc(Nc3cnn(C)c3)ncc2Cl)c1 | 174 nM | 6.39 µM | 4.11 | 3.25 µM | 790 nM | 2.86 | 109 µg | 20.7 nM | IC50 [2]: 69.5 nM; Kinact [5]: 6.16 10^-1/s; Ki [9]: 3.81 mM
Cn1cc(Nc2ncc(Cl)c(Nc3cccc(NC(=O)CCl)c3)n2)cn1 | 41.6 nM | 3.7 µM | 1.54 | 4.3 µM | 2780 nM | 2.6 | 183 µg | 47.8 nM | IC50 [2]: 911 nM
Cn1cc(Nc2ncc(Cl)c(Nc3cccc(NC(=O)/C=C/c4ccccc4)c3)n2)cn1 | 44.8 nM | 10.5 µM | 2.46 | 3.65 µM | 1480 nM | 4.18 | 1.35 µg | 22.8 nM | IC50 [2]: 8 nM
C=CC(=O)Nc1cccc(Nc2nc(Nc3ccc(N4CCN(C(C)=O)CC4)cc3OC)ncc2Cl)c1 | 87.6 nM |  |  |  |  |  |  |  | 
C=CC(=O)Nc1cccc(Nc2nc(Nc3ccc(N4CCN(C(C)=O)CC4)cc3OC)ncc2C(F)(F)F)c1 [ROCILETINIB] |  | 0.32 µM |  | 7.39 µM | 200 nM | 3.18 | 221 µg |  | IC50 [2]: 4.3 nM
CCC(=O)Nc1cccc(Nc2nc(Nc3cnn(C)c3)ncc2Cl)c1 | 35 nM | 11.2 µM | 10.2 | 28.3 µM | 2770 nM | 2.67 | 80.1 µg | 18.9 nM | IC50 [2]: 31.7 nM
CCC(=O)Nc1cccc(Nc2nc(Nc3ccc4c(C)n(C)nc4c3)ncc2Cl)c1 | 59.2 nM |  |  |  |  |  |  |  | 
CCC(=O)Nc1cccc(Nc2nc(Nc3ccc(N4CCN(C(C)=O)CC4)cc3)ncc2Cl)c1 | 65.9 nM |  |  |  |  |  |  |  | 
C=CC(=O)Nc1cccc(Nc2nc(Nc3ccc4c(C)n(C)nc4c3)ncc2Cl)c1 | 97.8 nM |  |  |  |  |  |  |  | 
O=C(CCl)Nc1cccc(Nc2nc(Nc3ccc4[nH]c(=O)oc4c3)ncc2Cl)c1 | 43.1 nM | 7.49 µM | 0.96 | 7.06 µM | 7290 nM | 3.51 | 15.4 µg | 63.2 nM | 
Cc1c2ccc(Nc3ncc(Cl)c(Nc4cccc(NC(=O)CCl)c4)n3)cc2nn1C | 78.9 nM |  |  |  |  |  |  |  | 
COc1cc(N2CCN(C(C)=O)CC2)ccc1Nc1ncc(Cl)c(Nc2cccc(NC(=O)/C=C/c3ccccc3)c2)n1 | 58 nM |  |  |  |  |  |  |  | 
CC(=O)N1CCN(c2ccc(Nc3ncc(Cl)c(Nc4cccc(NC(=O)CCl)c4)n3)cc2)CC1 | 114 nM |  |  |  |  |  |  |  | 
COc1cc(N2CCN(C(C)=O)CC2)ccc1Nc1ncc(Cl)c(Nc2cccc(NC(=O)CCl)c2)n1 | 22.6 nM | 7.05 µM | 2.18 | 12.6 µM | 5780 nM | 3.67 | 8.65 µg | 56.8 nM | Ratio IC50 [12]: 28
CC(=O)N1CCN(c2ccc(Nc3ncc(Cl)c(Nc4cccc(NC(=O)/C=C/c5ccccc5)c4)n3)cc2)CC1 | 87.8 nM |  |  |  |  |  |  |  | 
C=CC(=O)Nc1cccc(Nc2nc(Nc3ccc4[nH]c(=O)oc4c3)ncc2Cl)c1 | 63.5 nM |  |  |  |  |  |  |  | 
C=CC(=O)Nc1cccc(Nc2nc(Nc3ccc(N4CCN(C(C)=O)CC4)cc3)ncc2Cl)c1 | 43.6 nM | 3.47 µM | 4.65 | 1.07 µM | 230 nM | 3.18 | 13.4 µg | 69.7 nM | 
CCC(=O)Nc1cccc(Nc2nc(Nc3ccc(N4CCN(C(C)=O)CC4)cc3OC)ncc2Cl)c1 | 62.9 nM |  |  |  |  |  |  |  | 
CCC(=O)Nc1cccc(Nc2nc(Nc3ccc4[nH]c(=O)oc4c3)ncc2Cl)c1 | 116 nM |  |  |  |  |  |  |  | 
Cc1c2ccc(Nc3ncc(Cl)c(Nc4cccc(NC(=O)/C=C/c5ccccc5)c4)n3)cc2nn1C | 65.6 nM |  |  |  |  |  |  |  | 
C=CC(=O)Nc1cc(Nc2nccc(-c3cn(C)c4ccccc34)n2)c(OC)cc1N(C)CCN(C)C [OSIMERTINIB] |  | […] |  | 3.65 µM | 10200 nM | 3.43 | 30.1 µg |  | IC50 [2]: 35.3 nM
